# How the values were obtained:
# Format in all cases: in vivo
# [1] = tested on: Echinochloa crus-galli var. crus-galli; assay: Test Example 4: herbicidal effect by soil treatment (symbol H); settings: for H (Echinochloa crus-galli var. crus-galli) herbicidal effect grade: application herbicide amount 320 g/ha; for H: Echinochloa crus-galli var. crus-galli, herbicidal effect grade: 320 g/ha
# Procedure, shortened: (§1)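 Seeds were sown in sterilized diluvial soil, covered with about 1.5 cm of soil, and the soil surface was sprayed with a water-diluted emulsion of the compound at a predetermined rate. Plants grew in a greenhouse at 25° C. to 30° C.; effects were scored visually 3 weeks after application.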
# Amaranthus retroflexus = assay: Test Example 5: herbicidal effect by foliage application, plastic box (symbol N); settings: 320 g/ha, 3 weeks after application
# Procedure, shortened: (§2)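 Sowing in sterilized diluvial soil, 14 days' greenhouse growth at 25° C. to 30° C., then uniform small-sprayer foliar application of aqueous emulsion dilution; plants scored three weeks afterwards.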
# Abutilon theophrasti = assay: Test Example 4: herbicidal effect by soil treatment (symbol M); settings: for M (Abutilon theophrasti) herbicidal effect grade: application herbicide amount 320 g/ha; for M: Abutilon theophrasti, herbicidal effect grade: 320 g/ha
# Procedure, shortened: as §1
# rice plant = assay: Test Example 5: effect on crop by foliage application, plastic box (symbol b); settings: 320 g/ha, 3 weeks after application
# Procedure, shortened: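 Crop seed is sown alongside grass and broadleaf weed species in spots in sterilized diluvial soil, then covered to a depth of about 1.5 cm. Plants grow in a greenhouse kept at 25° C. to 30° C.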
# Scirpus juncoides = assay: Test Example 1: herbicidal activity, application before weed generation in submerged conditions (symbol B); settings: application herbicide amount 320 g/ha
# Procedure, shortened: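 Paddy pre-emergence test. Formulated emulsion, water-diluted to a predetermined rate, is applied to floodwater on sowing day; rice transplanted at 2.5 leaves. Effect read at 3 weeks on a 0–5 herbicidal-ratio scale.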
# Chenopodium album = assay: Test Example 4: herbicidal effect by soil treatment (symbol O); settings: for O (Chenopodium album) herbicidal effect grade: application herbicide amount 320 g/ha; for O: Chenopodium album, herbicidal effect grade: 320 g/ha
# Procedure, shortened: as §1
# Apera spica-venti = assay: Test Example 5: herbicidal effect by foliage application, plastic box (symbol L); settings: 320 g/ha, 3 weeks after application
# Procedure, shortened: as §2
# Lolium multiflorum Lam. = assay: Test Example 5: herbicidal effect by foliage application, plastic box (symbol K); settings: 320 g/ha, 3 weeks after application
# Procedure, shortened: as §2
smiles,measurement,setting,value
COCCOC1=C(c2c(C)cc(C)cc2C)C(=O)C(CC(C)=NOC)C1 (stereo not shown) [1-037],H (Echinochloa crus-galli var. crus-galli) herbicidal effect grade,[1],0 (Herbicidal ratio of 5% or lower (almost no effect))
same,"N: Amaranthus retroflexus, herbicidal effect grade",Amaranthus retroflexus,0 (Herbicidal ratio of 5% or lower (almost no effect))
same,M (Abutilon theophrasti) herbicidal effect grade,Abutilon theophrasti,0 (Herbicidal ratio of 5% or lower (almost no effect))
same,"b: directly sowed rice plant, effect on crop grade",rice plant,0 (Herbicidal ratio of 5% or lower (almost no effect))
same,"Herbicidal effect grade, B: Scirpus juncoides",Scirpus juncoides,0 (Herbicidal ratio of 5% or lower (almost no effect))
same,O (Chenopodium album) herbicidal effect grade,Chenopodium album,0 (Herbicidal ratio of 5% or lower (almost no effect))
same,"L: Apera spica-venti, herbicidal effect grade",Apera spica-venti,0 (Herbicidal ratio of 5% or lower (almost no effect))
same,"K: Lolium multiflorum Lam., herbicidal effect grade",Lolium multiflorum Lam.,0 (Herbicidal ratio of 5% or lower (almost no effect))
CON=C(C)CC1CC(OC(=O)C(C)Cl)=C(c2c(C)cc(C)cc2C)C1=O (stereo not shown) [1-042],H (Echinochloa crus-galli var. crus-galli) herbicidal effect grade,[1],5 (Herbicidal ratio of 90% or more (almost completely withered))
same,"N: Amaranthus retroflexus, herbicidal effect grade",Amaranthus retroflexus,0 (Herbicidal ratio of 5% or lower (almost no effect))
same,M (Abutilon theophrasti) herbicidal effect grade,Abutilon theophrasti,5 (Herbicidal ratio of 90% or more (almost completely withered))
same,"b: directly sowed rice plant, effect on crop grade",rice plant,5 (Herbicidal ratio of 90% or more (almost completely withered))
same,"Herbicidal effect grade, B: Scirpus juncoides",Scirpus juncoides,5 (Herbicidal ratio of 90% or more (almost completely withered))
same,O (Chenopodium album) herbicidal effect grade,Chenopodium album,0 (Herbicidal ratio of 5% or lower (almost no effect))
same,"L: Apera spica-venti, herbicidal effect grade",Apera spica-venti,5 (Herbicidal ratio of 90% or more (almost completely withered))
same,"K: Lolium multiflorum Lam., herbicidal effect grade",Lolium multiflorum Lam.,5 (Herbicidal ratio of 90% or more (almost completely withered))
CCCCCCCON=C(C)CC1CC(O)=C(c2c(C)cc(C)cc2C)C1=O (stereo not shown) [1-054],H (Echinochloa crus-galli var. crus-galli) herbicidal effect grade,[1],4 (Herbicidal ratio of 70% or higher and lower than 90%)
same,"N: Amaranthus retroflexus, herbicidal effect grade",Amaranthus retroflexus,0 (Herbicidal ratio of 5% or lower (almost no effect))
same,M (Abutilon theophrasti) herbicidal effect grade,Abutilon theophrasti,0 (Herbicidal ratio of 5% or lower (almost no effect))
same,"b: directly sowed rice plant, effect on crop grade",rice plant,4 (Herbicidal ratio of 70% or higher and lower than 90%)
same,"Herbicidal effect grade, B: Scirpus juncoides",Scirpus juncoides,0 (Herbicidal ratio of 5% or lower (almost no effect))
same,O (Chenopodium album) herbicidal effect grade,Chenopodium album,0 (Herbicidal ratio of 5% or lower (almost no effect))
same,"L: Apera spica-venti, herbicidal effect grade",Apera spica-venti,3 (Herbicidal ratio of 40% or higher and lower than 70%)
same,"K: Lolium multiflorum Lam., herbicidal effect grade",Lolium multiflorum Lam.,5 (Herbicidal ratio of 90% or more (almost completely withered))
CC(CC1CC(O)=C(c2c(C)cc(C)cc2C)C1=O)=NOCC[Si](C)(C)C (stereo not shown) [1-055],H (Echinochloa crus-galli var. crus-galli) herbicidal effect grade,[1],4 (Herbicidal ratio of 70% or higher and lower than 90%)
same,"N: Amaranthus retroflexus, herbicidal effect grade",Amaranthus retroflexus,0 (Herbicidal ratio of 5% or lower (almost no effect))
same,M (Abutilon theophrasti) herbicidal effect grade,Abutilon theophrasti,0 (Herbicidal ratio of 5% or lower (almost no effect))
same,"b: directly sowed rice plant, effect on crop grade",rice plant,5 (Herbicidal ratio of 90% or more (almost completely withered))
same,"Herbicidal effect grade, B: Scirpus juncoides",Scirpus juncoides,3 (Herbicidal ratio of 40% or higher and lower than 70%)
same,O (Chenopodium album) herbicidal effect grade,Chenopodium album,0 (Herbicidal ratio of 5% or lower (almost no effect))
same,"L: Apera spica-venti, herbicidal effect grade",Apera spica-venti,5 (Herbicidal ratio of 90% or more (almost completely withered))
same,"K: Lolium multiflorum Lam., herbicidal effect grade",Lolium multiflorum Lam.,5 (Herbicidal ratio of 90% or more (almost completely withered))
CON=C(C)CC1CC(OC(=O)C(C)Oc2ccccc2)=C(c2c(C)cc(C)cc2C)C1=O (stereo not shown) [1-060],H (Echinochloa crus-galli var. crus-galli) herbicidal effect grade,[1],5 (Herbicidal ratio of 90% or more (almost completely withered))
same,"N: Amaranthus retroflexus, herbicidal effect grade",Amaranthus retroflexus,0 (Herbicidal ratio of 5% or lower (almost no effect))
same,M (Abutilon theophrasti) herbicidal effect grade,Abutilon theophrasti,4 (Herbicidal ratio of 70% or higher and lower than 90%)
same,"b: directly sowed rice plant, effect on crop grade",rice plant,5 (Herbicidal ratio of 90% or more (almost completely withered))
same,"Herbicidal effect grade, B: Scirpus juncoides",Scirpus juncoides,4 (Herbicidal ratio of 70% or higher and lower than 90%)
same,O (Chenopodium album) herbicidal effect grade,Chenopodium album,0 (Herbicidal ratio of 5% or lower (almost no effect))
same,"L: Apera spica-venti, herbicidal effect grade",Apera spica-venti,5 (Herbicidal ratio of 90% or more (almost completely withered))
same,"K: Lolium multiflorum Lam., herbicidal effect grade",Lolium multiflorum Lam.,5 (Herbicidal ratio of 90% or more (almost completely withered))
CON=C(C)CC1CC(OC(=O)COc2ccc(Cl)cc2Cl)=C(c2c(C)cc(C)cc2C)C1=O (stereo not shown) [1-075],H (Echinochloa crus-galli var. crus-galli) herbicidal effect grade,[1],5 (Herbicidal ratio of 90% or more (almost completely withered))
same,"N: Amaranthus retroflexus, herbicidal effect (criteria 0-5)",Amaranthus retroflexus,4 (Herbicidal ratio of 70% or higher and lower than 90%)
same,M (Abutilon theophrasti) herbicidal effect grade,Abutilon theophrasti,5 (Herbicidal ratio of 90% or more (almost completely withered))
same,"b: directly sowed rice plant, effect on crop (criteria 0-5)",rice plant,5 (Herbicidal ratio of 90% or more (almost completely withered))
same,"Herbicidal effect grade, B: Scirpus juncoides",Scirpus juncoides,4 (Herbicidal ratio of 70% or higher and lower than 90%)
same,O (Chenopodium album) herbicidal effect grade,Chenopodium album,0 (Herbicidal ratio of 5% or lower (almost no effect))
same,"L: Apera spica-venti, herbicidal effect (criteria 0-5)",Apera spica-venti,5 (Herbicidal ratio of 90% or more (almost completely withered))
same,"K: Lolium multiflorum Lam., herbicidal effect (criteria 0-5)",Lolium multiflorum Lam.,5 (Herbicidal ratio of 90% or more (almost completely withered))
CON=C(C)CC1CC(OC(=O)COc2ccc(C=O)cc2)=C(c2c(C)cc(C)cc2C)C1=O (stereo not shown) [1-079],"H: Echinochloa crus-galli var. crus-galli, herbicidal effect grade",[1],5 (Herbicidal ratio of 90% or more (almost completely withered))
same,"N: Amaranthus retroflexus, herbicidal effect (criteria 0-5)",Amaranthus retroflexus,0 (Herbicidal ratio of 5% or lower (almost no effect))
same,"M: Abutilon theophrasti, herbicidal effect grade",Abutilon theophrasti,5 (Herbicidal ratio of 90% or more (almost completely withered))
same,"b: directly sowed rice plant, effect on crop (criteria 0-5)",rice plant,5 (Herbicidal ratio of 90% or more (almost completely withered))
same,"Herbicidal effect grade, B: Scirpus juncoides",Scirpus juncoides,5 (Herbicidal ratio of 90% or more (almost completely withered))
same,"O: Chenopodium album, herbicidal effect grade",Chenopodium album,0 (Herbicidal ratio of 5% or lower (almost no effect))
same,"L: Apera spica-venti, herbicidal effect (criteria 0-5)",Apera spica-venti,5 (Herbicidal ratio of 90% or more (almost completely withered))
same,"K: Lolium multiflorum Lam., herbicidal effect (criteria 0-5)",Lolium multiflorum Lam.,5 (Herbicidal ratio of 90% or more (almost completely withered))
CON=C(C)CC1CC(OC(=O)COc2ccc(Br)cc2)=C(c2c(C)cc(C)cc2C)C1=O (stereo not shown) [1-081],"H: Echinochloa crus-galli var. crus-galli, herbicidal effect grade",[1],5 (Herbicidal ratio of 90% or more (almost completely withered))
same,"N: Amaranthus retroflexus, herbicidal effect (criteria 0-5)",Amaranthus retroflexus,5 (Herbicidal ratio of 90% or more (almost completely withered))
same,"M: Abutilon theophrasti, herbicidal effect grade",Abutilon theophrasti,4 (Herbicidal ratio of 70% or higher and lower than 90%)
same,"b: directly sowed rice plant, effect on crop (criteria 0-5)",rice plant,5 (Herbicidal ratio of 90% or more (almost completely withered))
same,"Herbicidal effect grade, B: Scirpus juncoides",Scirpus juncoides,5 (Herbicidal ratio of 90% or more (almost completely withered))
same,"O: Chenopodium album, herbicidal effect grade",Chenopodium album,0 (Herbicidal ratio of 5% or lower (almost no effect))
same,"L: Apera spica-venti, herbicidal effect (criteria 0-5)",Apera spica-venti,5 (Herbicidal ratio of 90% or more (almost completely withered))
same,"K: Lolium multiflorum Lam., herbicidal effect (criteria 0-5)",Lolium multiflorum Lam.,5 (Herbicidal ratio of 90% or more (almost completely withered))

# Reference: US11000033B2, “Ketone or oxime compound, and herbicide” (NISSAN CHEMICAL CORPORATION, priority 2014, dated 2021)
